Series [1] in a line: Stability: solids placed openly in a stability test chamber at 25° C. and 65% RH, purity by HPLC. Format: physicochemical. The settings on record: calcium salt. The source says: NMNH is the reduced form of NMN, sensitive to air, easily oxidized, and unstable, making it unsuitable for long-term storage and market promotion. WO2023160405 (A1) reported the NMNH disodium salt compound and its crystalline and amorphous forms. […] Such stability fails to meet the shelf-life requirements for commercial products, hindering market promotion. The solid forms of NMNH calcium salt crystalline form A, crystalline form B, crystalline form C, crystalline form D, and crystalline form E were placed openly in a stability test chamber at 25° C. and 65% RH to evaluate their stability and hygroscopicity.

Series [2] is described as follows: Hygroscopicity: solids placed openly at 25° C. and 65% RH, water content by KF. The series is classed as physicochemical. The procedure: The solid forms of NMNH calcium salt crystalline form A, crystalline form B, crystalline form C, crystalline form D, and crystalline form E were placed openly in a stability test chamber at 25° C. and 65% RH to evaluate their stability and hygroscopicity.

The conditions of series [3]: cited from earlier work; for Appearance of the solid / Purity (HPLC, area %): 25° C., 65% RH, data of WO2023160405 (A1); for Purity: 25° C. and 65% RH / air, WO2023160405 (A1).
The conditions of series [4]: WO2023160405 (A1); cited from earlier work.

Like-named read-outs stand apart in the source and are kept apart here.

Turning to `NC(=O)C1=CN([C@@H]2O[C@H](COP(=O)(O)O)[C@@H](O)[C@H]2O)C=CC1.[Ca+2]` [NMNH calcium salt Crystalline Form B, reduced β-nicotinamide mononucleotide calcium salt], the “Purity (HPLC, area %)” value in series [1] (0 day), in series [1] (5 days) and in series [1] (60 days) was 99.75 area % each time. Also, the figures for the “Water content of NMNH calcium salt crystalline form (KF)” value in series [2] (0 day), in series [2] (5 days) and in series [2] (60 days) were 13.3%, 13.2% and 12.9%, respectively.

Consider `NC(=O)C1=CN([C@@H]2O[C@H](COP(=O)([O-])[O-])[C@@H](O)[C@H]2O)C=CC1.[Na+].[Na+]` [NMNH disodium salt Amorphous Form, NMNH disodium salt], for which the “Appearance of the solid” value in series [3] (0 day, disodium salt) was “(powder)”; in series [3] (0 day, listed as amorphous solid of NMNH disodium salt, disodium salt) it was “powder”; in series [3] (after 1 day, disodium salt), “(oil)”; in series [3] (after 1 day, listed as NMNH disodium salt amorphous powder, disodium salt), “oil”; in series [3] (after 1 day, listed as amorphous solid of NMNH disodium salt, disodium salt), “oil”. Moreover, the “Purity (HPLC, area %)” value in series [3] (0 day, disodium salt) was 99.30 area %; in series [3] (1 day, disodium salt), 99.02 area %. In addition, the Purity in series [3] (after 1 day) is recorded as 99.02%; in series [3] (initial value before exposure, listed as NMNH disodium salt amorphous powder, disodium salt) it was 99.30%; in series [3] (initial value before exposure, listed as amorphous solid of NMNH disodium salt, disodium salt), 99.30%.

With `NC(=O)C1=CN([C@@H]2O[C@H](COP(=O)(O)O)[C@@H](O)[C@H]2O)C=CC1.[Ca+2]` [NMNH calcium salt Crystalline Form E, reduced β-nicotinamide mononucleotide calcium salt], the “Purity (HPLC, area %)” value in series [1] (0 day) was 99.60 area %; in series [1] (5 days), 99.60 area %; in series [1] (60 days), 99.59 area %. Besides, the figures for the “Water content of NMNH calcium salt crystalline form (KF)” value in series [2] (0 day), in series [2] (5 days) and in series [2] (60 days) were 20.3%, 20.3% and 20.0%, respectively.

Regarding `NC(=O)C1=CN([C@@H]2O[C@H](COP(=O)(O)O)[C@@H](O)[C@H]2O)C=CC1.[Ca+2]` [NMNH calcium salt Crystalline Form A, reduced β-nicotinamide mononucleotide calcium salt], the “Purity (HPLC, area %)” value in series [1] (0 day) is listed as 99.83 area %; in series [1] (5 days) it was 99.82 area %; in series [1] (60 days), 99.82 area %. The “Water content of NMNH calcium salt crystalline form (KF)” value in series [2] (0 day) came to 9.2%; in series [2] (5 days), 9.2%; in series [2] (60 days), 9.0%.

Consider `NC(=O)C1=CN([C@@H]2O[C@H](COP(=O)(O)O)[C@@H](O)[C@H]2O)C=CC1.[Ca+2]` [NMNH calcium salt Crystalline Form D, reduced β-nicotinamide mononucleotide calcium salt], for which the “Purity (HPLC, area %)” value in series [1] (0 day), in series [1] (5 days) and in series [1] (60 days) was 99.64 area % each time. For the same compound, the results for the “Water content of NMNH calcium salt crystalline form (KF)” value in series [2] (0 day), in series [2] (5 days) and in series [2] (60 days) were 18.4%, 18.4% and 18.3%, respectively.

`NC(=O)C1=CN([C@@H]2O[C@H](COP(=O)([O-])[O-])[C@@H](O)[C@H]2O)C=CC1.[Na+].[Na+]` [NMNH disodium salt crystalline form B, NMNH disodium salt]: the “Behaviour of the crystalline form when stored in the air” value in series [4] is “absorb water and transform into crystalline form A”.

As to `NC(=O)C1=CN([C@@H]2O[C@H](COP(=O)(O)O)[C@@H](O)[C@H]2O)C=CC1.[Ca+2]` [NMNH calcium salt Crystalline Form C, reduced β-nicotinamide mononucleotide calcium salt], the “Purity (HPLC, area %)” value in series [1] (0 day) turned out to be 99.78 area %; in series [1] (5 days), 99.78 area %; in series [1] (60 days), 99.79 area %. Besides, the “Water content of NMNH calcium salt crystalline form (KF)” value turned out to be 9.5% in series [2] (0 day), 9.5% in series [2] (5 days) and 9.3% in series [2] (60 days).

As to `NC(=O)C1=CN([C@@H]2O[C@H](COP(=O)([O-])[O-])[C@@H](O)[C@H]2O)C=CC1.[Na+].[Na+]` [NMNH disodium salt Crystalline Form A, NMNH disodium salt], the “Purity (HPLC, area %)” value is on record as 99.33 area % in series [3] (0 day, disodium salt); 99.27 area % in series [3] (1 day, disodium salt); 99.01 area % in series [3] (5 days). Besides, the Purity in series [3] (after 5 days) is 99.01%; in series [3] (text, initial value before exposure, listed as NMNH disodium salt crystalline Form A, disodium salt), 99.33%; in series [3] (text, initial value before exposure, listed as NMNH disodium salt crystalline form A, disodium salt), 99.33%.

(Values after patent publication US12692287B2, “Polymorphic form of reduced B-nicotinamide mononucleotide calcium salt, and preparation method and use therefor” (EffePharm (Shanghai) Co., Ltd., priority 2023, dated 2026).)
